Experimental data as given in US10131679B2, “Substituted dihydropyrrolopyrazole compound” (UBE INDUSTRIES, LTD., priority 2014, dated 2018).
pIC50, pKi: −log10 of the molar value.

What was measured:
[1] = tested on: human large intestine cancer cell line (HCT-116); assay: Human large intestine cancer (HCT-116) cell growth inhibition test; format: cell-based; settings: 72 h, HCT-116, culture for 3 days, sulforhodamine B absorbance
Procedure, shortened: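 HCT-116 cells seeded at 1.0×10^3 cells/well in McCoy's 5a with 10% FBS, then exposed to compound (0.1% DMSO final) for 3 days. Growth measured by sulforhodamine B absorbance; IC50 derived from concentration-inhibition data.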

[2] = molecular target: T1, CDK7 (Homo sapiens, UniProt P50613); assay: CDK7 enzyme inhibition test; format: biochemical; settings: Ki=IC50/(1+S/Km); 33P bound to MBP, [γ-33P]ATP, 30° C. for 20 minutes; read-out: Ki value of CDK7 inhibitory activity
T1 construct: purchased Carna Biosciences, Inc. 04-108
Procedure, shortened: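 Recombinant CDK7 with MBP substrate and [γ-33P]ATP (500 μM solution, diluted into the mix) in HEPES pH 7.4/DTT/Triton X-100/MgCl2, 20 min at 30 °C. TCA-precipitated 33P-MBP counted by scintillation; IC50 from inhibition, Ki = IC50/(1+S/Km).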

[3] = tested on: Human keratinocytes (NHEK-Neo Pooled); assay: Human keratinocyte growth inhibition assay; format: cell-based; settings: 48 h, culture for 2 days, Cell Counting Kit-8
Description: Human Keratinocyte Growth Inhibition Assay
The measurement of a human keratinocyte growth inhibitory effect was carried out by modifying the method of Schafer et al. (British Journal of Pharmacology, 159, 842 (2011)).
Human keratinocytes (NHEK-Neo Pooled, manufactured by Lonza Group AG, Cat. No. 00192906) were cultured in KGM-Gold Bullet Kit (manufactured by Lonza Group AG, Cat. No. 00192060) and inoculated at 2.0×10^3 cells/well to a 96-well plate. After overnight culture in a carbon dioxide incubator, a test compound dissolved in DMSO (final DMSO concentration: 0.1%) was added and left standing in a carbon dioxide incubator. After culture for 2 days, the absorbance thereof was measured by using Cell Counting Kit-8 (343-07623 manufactured by Dojindo Laboratories)).
The rate of inhibition of cell growth at each concentration was calculated from the test compound concentration and the absorbance of Cell Counting Kit-8, and the concentration of the test compound necessary for inhibiting 50% of cell growth (IC50 value) was calculated by using EXSUS (version 8.0.0 or version 8.0.1, manufactured by CAC Exicare Corp.).

[4] = tested on: IL-2 production in human peripheral blood mononuclear cell (PBMC); assay: Human PBMC CD3/CD28-induced IL-2 production inhibition test; format: cell-based; settings: 48 h, CD3/CD28 stimulation, incubation for 2 days, ELISA
Excerpt: Human Peripheral Blood Mononuclear Cell (PBMC) CD3/CD28-Induced IL-2 Production Inhibition Test
PBMC was separated and collected by using Ficoll-Paque (17-1440-02 manufactured by GE Healthcare Japan Corp.) from blood collected from healthy human adult in the presence of heparin. RPMI1640 medium (manufactured by GIBCO/Thermo Fisher Scientific, Inc., REF. 11875) containing 10% FBS (manufactured by GIBCO/Thermo Fisher Scientific, Inc. REF. 10082) and containing a test compound dissolved in DMSO and 2 μg/mL anti-hCD28 (manufactured by R&D Systems, Inc., Cat. No. MAB342) was added at 100 μL/well to T cell Activation Plate Anti-Human CD3 96-well plate (manufactured by Corning Inc., REF. 354725), and subsequently, a PBMC suspension adjusted such that the number of cells was 2×10^6 cells/mL was added at 100 μL/well (final DMSO concentration: 0.1%). A RPMI1640 medium containing 10% FBS and containing 0.1% DMSO and 2 μg/mL anti-hCD28 was similarly added to wells not supplemented with the test compound. After incubation for 2 days in a carbon dioxide incubator, the culture supernatant was collected. The collected culture supernatant was stored at −20° C. until IL-2 content measurement.
In the measurement of IL-2 content in the culture supernatant, a sandwich ELISA kit Quantikine Human IL-2 (manufactured by R&D Systems, Inc., Cat. No. S2050) was used. The IL-2 content of each sample was calculated from the calibration curve of Standard IL-2 included in the kit. When the amount of IL-2 produced by CD3/CD28 stimulation in the case of the addition of only DMSO was defined as 100%, the rate of inhibition of IL-2 production at each concentration of the test compound was calculated. A test compound concentration inhibiting 50% of IL-2 production was calculated as an IC50 value (nM) from the concentration of the added test compound and the rate of inhibition of IL-2 production by the test compound by using EXSUS (version 8.0.0 or version 8.0.1, manufactured by CAC Exicare Corp.).

[5] = tested on: mouse imiquimod-induced psoriasis model; assay: Ear thickening suppression test using mouse imiquimod-induced psoriasis model; format: in vivo; settings: topical, 120 h, application of a 0.01% methanol solution for 4 days, thickness measured on day 5, BALB/c mice, read-out: rate of inhibition of increase in right auricle thickness
Description: Ear Thickening Suppression Test Using Mouse Imiquimod-Induced Psoriasis Model
An imiquimod-induced psoriasis model test was carried out by modifying the method of Leslie van der Fits et al. (J. Immunol. 182, 5836 (2009)). BALB/c mice were used (female, supplied by Charles River Laboratories Japan, Inc.) as laboratory animals. On the start day of the test, the thicknesses of the right auricles of the mice were measured with a thickness gauge (model SMD-565J manufactured by TECLOCK Corp.). A test compound solution or only a solvent was applied or orally administered, and after 60 minutes, 5 mg of imiquimod (Beselna Cream 5% manufactured by Mochida Pharmaceutical Co., Ltd.) was applied to the insides of the right auricles. The test compound solution or solvent administration and the imiquimod application were carried out for 4 days, and the thicknesses of the right auricles were measured again on day 5. When increase in the thicknesses of the right auricles of the solvent-administered group on day 5 was defined as 100%, the rate of inhibition of increase (%) at each dose of the test compound was calculated.

[6] = tested on: IL-6 production in rat adjuvant arthritis model; assay: IL-6 production inhibition test in rat adjuvant arthritis model; format: in vivo, LEW rats; settings: single dose, administration of 10 mg/kg, left ankle, read-out: rate of inhibition of IL-6 production
Description: IL-6 Production Inhibition Test in Rat Adjuvant Arthritis Model
A single-dose drug efficacy test using rat adjuvant arthritis models was carried out by modifying the method of Magari. K et al. (J. Rheumatol. 30 (10), 2193 (2003)).
LEW rats (female, supplied by Charles River Laboratories Japan, Inc.) were used as laboratory animals. An adjuvant prepared from heat-killed bacteria of Mycobacterium butyricum (264010 manufactured by Difco Laboratories Ltd.) and liquid paraffin (manufactured by Wako Pure Chemical Industries, Ltd., Code No. 128-04375) was subcutaneously administered as a phlogogenic material to the right hind leg footpads of the rats under inhalation anesthesia with isoflurane (manufactured by Wako Pure Chemical Industries, Ltd., Code No. 099-06571) to prepare arthritis models. Approximately 2 weeks later, left paw edema was measured with a paw volume meter (model TK-101CMP manufactured by Unicorn Co., Ltd.), and grouping was performed such that the average volume of left paw edema was equal among groups. A test compound or only a solvent was administered, after a certain time, they were sacrificed by exsanguination from the abdomens under isoflurane anesthesia, and the left ankles were collected, chopped, and frozen by using liquid nitrogen. The collected left ankle portions were disrupted in CRYOPress (model CP-100WP manufactured by Microtec Co., Ltd.), then supplemented with a buffer solution, shaken overnight at 4° C., and then centrifuged to collected a supernatant. The preparation of the buffer solution was performed by mixing a Tris buffer solution (pH 7.4), sodium chloride (NaCl), phenyl methyl sulfonyl fluoride (PMSF), Triton X-100, EDTA-free complete tablets (manufactured by F. Hoffmann-La Roche, Ltd., REF. 11 873 580 001), and Otsuka distilled water (manufactured by Otsuka Pharmaceutical Co., Ltd., product No. 1323). IL-6 in the collected supernatant was measured by using a sandwich ELISA kit (manufactured by R&D Systems, Inc., Catalog No. S6050).
The IL-6 content of each sample was calculated from the calibration curve of Standard IL-6 included in the kit. When the amount of IL-6 produced in the solvent administration control group was defined as 100%, the rate of inhibition of IL-6 production (%) at each dose of the test compound was calculated.

T1 sequence (P50613 whole entry): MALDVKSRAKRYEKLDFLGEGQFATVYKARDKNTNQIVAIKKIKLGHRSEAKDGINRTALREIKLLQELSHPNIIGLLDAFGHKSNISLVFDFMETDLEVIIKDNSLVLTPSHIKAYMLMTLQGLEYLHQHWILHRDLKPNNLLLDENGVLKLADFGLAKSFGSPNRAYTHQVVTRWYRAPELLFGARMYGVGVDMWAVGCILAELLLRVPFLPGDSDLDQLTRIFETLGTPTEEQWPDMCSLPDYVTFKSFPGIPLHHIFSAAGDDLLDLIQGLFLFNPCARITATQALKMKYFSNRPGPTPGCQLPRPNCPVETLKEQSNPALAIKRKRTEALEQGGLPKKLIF
T1 sequence (P51946 whole entry partner): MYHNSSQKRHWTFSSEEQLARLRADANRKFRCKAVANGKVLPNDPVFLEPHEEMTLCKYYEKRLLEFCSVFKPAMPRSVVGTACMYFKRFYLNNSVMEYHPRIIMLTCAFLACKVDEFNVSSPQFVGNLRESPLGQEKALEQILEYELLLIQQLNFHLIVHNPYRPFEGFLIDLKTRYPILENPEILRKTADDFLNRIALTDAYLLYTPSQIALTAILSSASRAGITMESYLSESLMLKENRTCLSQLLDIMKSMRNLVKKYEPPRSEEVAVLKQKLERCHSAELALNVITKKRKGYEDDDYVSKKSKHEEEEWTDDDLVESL
T1 sequence (P51948 whole entry partner): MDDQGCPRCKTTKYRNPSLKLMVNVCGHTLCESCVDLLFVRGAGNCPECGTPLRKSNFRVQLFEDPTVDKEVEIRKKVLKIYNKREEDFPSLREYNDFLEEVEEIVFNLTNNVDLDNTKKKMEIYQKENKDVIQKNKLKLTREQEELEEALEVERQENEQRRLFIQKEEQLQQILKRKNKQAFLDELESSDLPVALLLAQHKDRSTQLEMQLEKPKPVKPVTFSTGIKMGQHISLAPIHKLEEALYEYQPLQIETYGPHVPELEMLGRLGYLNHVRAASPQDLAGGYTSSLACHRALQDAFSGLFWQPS

pIC50 [1] | pKi [2] | SMILES | pIC50 [3] | pIC50 [4] | inhibition in vivo at 0.01 % [5] | inhibition in vivo at 10 mg/kg [6]
≥ 6.30 | ≥ 7.30 | CC1(C)c2[nH]nc(NC(=O)C3([Si](C)(C)C)CCC3)c2CN1C(=O)NC(C#CCO)c1ccccc1 (racemic) [IV-378, N-(4-Hydroxy-1-phenyl-2-butyn-1-yl)-6,6-dimethyl-3-[1-(trimethylsilyl)cyclobutanecarboxamido]-4,6-dihydropyrrolo[3,4-c]pyrazole-5(1H)-carboxamide] | ≥ 6.30 | – | – | –
≥ 6.30 | ≥ 7.30 | CO[C@@H](C(=O)N1Cc2c(NC(=O)C3([Si](C)(C)C)CC3)n[nH]c2C1(C)C)c1ccccc1 [III-1059, (R)—N-[5-(2-Methoxy-2-phenylacetyl)-6,6-dimethyl-1,4,5,6-tetrahydropyrrolo[3,4-c]pyrazol-3-yl]-1-(trimethylsilyl)cyclopropanecarboxamide] | ≥ 6.30 | – | ≥ 50% | –
≥ 6.30 | ≥ 7.30 | CC1(C)c2[nH]nc(NC(=O)C3([Si](C)(C)C)CCC3)c2CN1C(=O)NC(CO)c1ccccc1F (centres unmarked) [IV-510, N-[1-(2-Fluorophenyl)-2-hydroxyethyl]-6,6-dimethyl-3-[1-(trimethylsilyl)cyclobutanecarboxamido]-4,6-dihydropyrrolo[3,4-c]pyrazole-5(1H)-carboxamide] | – | ≥ 7.30 | – | –
≥ 6.30 | ≥ 7.30 | CC1(C)c2[nH]nc(NC(=O)C3([Si](C)(C)C)CCC3)c2CN1C(=O)N[C@H](CO)c1cccc(F)c1 [IV-519, (S)—N-[1-(3-Fluorophenyl)-2-hydroxyethyl]-6,6-dimethyl-3-[1-(trimethylsilyl)cyclobutanecarboxamido]-4,6-dihydropyrrolo[3,4-c]pyrazole-5(1H)-carboxamide] | ≥ 6.30 | ≥ 7.30 | – | –
≥ 6.30 | ≥ 7.30 | CC1(C)c2[nH]nc(NC(=O)C3([Si](C)(C)C)CCC3)c2CN1C(=O)N[C@H](CO)c1ccc(F)cc1 [IV-527, (S)—N-[1-(4-Fluorophenyl)-2-hydroxyethyl]-6,6-dimethyl-3-[1-(trimethylsilyl)cyclobutanecarboxamido]-4,6-dihydropyrrolo[3,4-c]pyrazole-5(1H)-carboxamide] | ≥ 6.30 | ≥ 7.30 | – | –
≥ 6.30 | ≥ 7.30 | CC(OC1CCCCC1)C(=O)N1Cc2c(NC(=O)C3([Si](C)(C)C)CCC3)n[nH]c2C1(C)C (centres unmarked) [IV-1255, N-{5-[2-(Cyclohexyloxy)propanoyl]-6,6-dimethyl-1,4,5,6-tetrahydropyrrolo[3,4-c]pyrazol-3-yl}-1-(trimethylsilyl)cyclobutanecarboxamide] | – | ≥ 7.30 | – | –

SMILES | pIC50 [1] | pKi [2] | pIC50 [3] | pIC50 [4] | inhibition in vivo at 0.01 % [5] | inhibition in vivo at 10 mg/kg [6]
CC(C)(O)[C@@H](NC(=O)N1Cc2c(NC(=O)C3([Si](C)(C)C)CC3)n[nH]c2C1(C)C)c1ccccc1 [III-170, (S)—N-(2-Hydroxy-2-methyl-1-phenylpropyl)-6,6-dimethyl-3-[1-(trimethylsilyl)cyclopropanecarboxamido]-4,6-dihydropyrrolo[3,4-c]pyrazole-5(1H)-carboxamide] | ≥ 6.30 | ≥ 7.30 | ≥ 6.30 | ≥ 7.30 | – | –
CC1(C)c2[nH]nc(NC(=O)C3([Si](C)(C)C)CC3)c2CN1C(=O)N[C@H](CCO)c1ccccc1 [III-226, (R)—N-(3-Hydroxy-1-phenylpropyl)-6,6-dimethyl-3-[1-(trimethylsilyl)cyclopropanecarboxamido]-4,6-dihydropyrrolo[3,4-c]pyrazole-5(1H)-carboxamide] | ≥ 6.30 | ≥ 7.30 | ≥ 6.30 | ≥ 7.30 | – | –
CC1(C)c2[nH]nc(NC(=O)C3([Si](C)(C)C)CCC3)c2CN1C(=O)N[C@H](COC(F)F)c1ccccc1 [IV-131, (S)—N-[2-(Difluoromethoxy)-1-phenylethyl]-6,6-dimethyl-3-[1-(trimethylsilyl)cyclobutanecarboxamido]-4,6-dihydropyrrolo[3,4-c]pyrazole-5(1H)-carboxamide] | ≥ 6.30 | – | ≥ 6.30 | – | – | –
COCC[C@@H](NC(=O)N1Cc2c(NC(=O)C3([Si](C)(C)C)CCC3)n[nH]c2C1(C)C)c1ccccc1 [IV-235, (R)—N-(3-Methoxy-1-phenylpropyl)-6,6-dimethyl-3-[1-(trimethylsilyl)cyclobutanecarboxamido]-4,6-dihydropyrrolo[3,4-c]pyrazole-5(1H)-carboxamide] | ≥ 6.30 | – | ≥ 6.30 | ≥ 7.30 | – | ≥ 50%
